Laboratory results as given in patent US20190367516A1 (Bayer Pharma Aktiengesellschaft, priority 2015, published 2019).

Target: T1, human M2 receptor (Homo sapiens, UniProt P08172)
T1 sequence (P08172 1-466): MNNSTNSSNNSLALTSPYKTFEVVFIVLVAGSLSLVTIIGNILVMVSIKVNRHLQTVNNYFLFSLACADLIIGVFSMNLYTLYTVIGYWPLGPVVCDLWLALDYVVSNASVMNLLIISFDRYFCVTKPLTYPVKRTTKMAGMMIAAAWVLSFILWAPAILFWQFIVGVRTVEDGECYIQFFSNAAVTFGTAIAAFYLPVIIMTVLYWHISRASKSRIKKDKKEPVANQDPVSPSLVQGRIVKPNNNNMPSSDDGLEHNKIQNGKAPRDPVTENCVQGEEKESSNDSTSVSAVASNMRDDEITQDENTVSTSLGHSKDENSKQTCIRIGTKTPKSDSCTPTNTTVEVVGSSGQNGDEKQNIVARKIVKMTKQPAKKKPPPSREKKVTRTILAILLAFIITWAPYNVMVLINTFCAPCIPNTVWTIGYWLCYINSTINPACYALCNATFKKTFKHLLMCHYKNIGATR
Conditions: Receptor activity EC50, M2-GIRK1/4 activation test, acetylcholine at EC20; allosteric potency; in some cases mean values from two or more determinations

Row | Compound | EC50 [nM]
1 | CC[C@@H](NC(=O)c1cn(-c2ccc(F)cc2F)c2nc(N3CCC(O)(O)C(F)C3)ccc2c1=O)C(F)(F)F (mixture of isomers) [Example 34, 1-(2,4-Difluorophenyl)-7-[3-fluoro-4,4-dihydroxypiperidin-1-yl]-4-oxo-N-[(2R)-1,1,1-trifluorobutan-2-yl]-1,4-dihydro-1,8-naphthyridine-3-carboxamide (diastereomer mixture)] | 95
2 | O=C(NC1(C(F)(F)F)CCOC1)c1cn(-c2ccc(F)cc2F)c2nc(N3C[C@@H](O)CC3=O)ccc2c1=O (mixture of isomers) [Example 238, 1-(2,4-Difluorophenyl)-7-[(4S)-4-hydroxy-2-oxopyrrolidin-1-yl]-4-oxo-N-[3-(trifluoromethyl)tetrahydrofuran-3-yl]-1,4-dihydro-1,8-naphthyridine-3-carboxamide] | 1640
3 | CC[C@@H](NC(=O)c1cn(-c2ccc(F)cc2F)c2nc(N3CC(C)OC3=O)ccc2c1=O)C(F)(F)F (mixture of isomers) [Example 266, 1-(2,4-Difluorophenyl)-7-[5-methyl-2-oxo-1,3-oxazolidin-3-yl]-4-oxo-N-[(2R)-1,1,1-trifluorobutan-2-yl]-1,4-dihydro-1,8-naphthyridine-3-carboxamide] | 743
4 | CCC(NC(=O)c1cn(-c2ccc(F)cc2F)c2nc(N3CC(CO)C3)ccc2c1=O)C(F)(F)F (racemic) [Example 26, rac-1-(2,4-Difluorophenyl)-7-[3-(hydroxymethyl)azetidin-1-yl]-4-oxo-N-[1,1,1-trifluorobutan-2-yl]-1,4-dihydro-1,8-naphthyridine-3-carboxamide] | 164
5 | CC(CC(F)(F)F)NC(=O)c1cn(-c2ccc(F)cc2F)c2nc(N(C)C)ccc2c1=O (racemic) [Example 46, rac-1-(2,4-Difluorophenyl)-7-(dimethylamino)-4-oxo-N-[4,4,4-trifluorobutan-2-yl]-1,4-dihydro-1,8-naphthyridine-3-carboxamide] | 127
6 | CN(C)c1ccc2c(=O)c(C(=O)NC(c3ccccc3Cl)C(F)(F)F)cn(-c3ccc(F)cc3F)c2n1 (racemic) [Example 48, rac-N-[1-(2-Chlorophenyl)-2,2,2-trifluoroethyl]-1-(2,4-difluorophenyl)-7-(dimethylamino)-4-oxo-1,4-dihydro-1,8-naphthyridine-3-carboxamide] | 110
7 | CCCC(NC(=O)c1cn(-c2ccc(F)cc2F)c2nc(NCCF)ccc2c1=O)C(F)(F)F (racemic) [Example 86, rac-1-(2,4-Difluorophenyl)-7-[(2-fluoroethyl)amino]-4-oxo-N-[(2R)-1,1,1-trifluoropentan-2-yl]-1,4-dihydro-1,8-naphthyridine-3-carboxamide] | 108
8 | CC(C)CC(NC(=O)c1cn(-c2ccc(F)cc2F)c2nc(NCC(F)(F)F)ccc2c1=O)C(F)(F)F (racemic) [Example 95, rac-1-(2,4-Difluorophenyl)-4-oxo-7-[(2,2,2-trifluoroethyl)amino]-N-[1,1,1-trifluoro-4-methylpentan-2-yl]-1,4-dihydro-1,8-naphthyridine-3-carboxamide] | 144
9 | CC(NC(=O)c1cn(-c2ccc(F)cc2F)c2nc(N(C)CC(F)(F)F)ccc2c1=O)C(F)(F)F (racemic) [Example 99, rac-1-(2,4-Difluorophenyl)-7-[methyl(2,2,2-trifluoroethyl)amino]-4-oxo-N-[1,1,1-trifluoropropan-2-yl]-1,4-dihydro-1,8-naphthyridine-3-carboxamide] | 182
10 | CCC(NC(=O)c1cn(-c2ccc(F)cc2F)c2nc(N(C)CC(F)(F)F)ccc2c1=O)C(F)(F)F (racemic) [Example 100] | 143
11 | CC(NC(=O)c1cn(-c2ccc(F)cc2F)c2nc(N(C)CCF)ccc2c1=O)C(F)(F)F (racemic) [Example 105, rac-1-(2,4-Difluorophenyl)-7-[(2-fluoroethyl)(methyl)amino]-4-oxo-N-[1,1,1-trifluoropropan-2-yl]-1,4-dihydro-1,8-naphthyridine-3-carboxamide] | 146
12 | CC(NC(=O)c1cn(-c2ccc(F)cc2F)c2nc(N(C)CC(F)F)ccc2c1=O)C(F)(F)F (racemic) [Example 113, rac-7-[(2,2-Difluoroethyl)(methyl)amino]-1-(2,4-difluorophenyl)-4-oxo-N-[1,1,1-trifluoropropan-2-yl]-1,4-dihydro-1,8-naphthyridine-3-carboxamide] | 141
13 | CCC(NC(=O)c1cn(-c2ccc(F)cc2F)c2nc(N(C)CC(F)F)ccc2c1=O)C(F)(F)F (racemic) [Example 114, rac-7-[(2,2-Difluoroethyl)(methyl)amino]-1-(2,4-difluorophenyl)-4-oxo-N-[1,1,1-trifluorobutan-2-yl]-1,4-dihydro-1,8-naphthyridine-3-carboxamide] | 98
14 | O=C(NC12CC3CC(CC(C3)C1)C2)c1cn(-c2ccc(F)cc2F)c2nc(N3CCOC(CO)C3)ccc2c1=O (racemic) [Example 118, rac-1-(2,4-Difluorophenyl)-7-[2-(hydroxymethyl)morpholin-4-yl]-4-oxo-N-(tricyclo[3.3.1.1^3,7]dec-1-yl)-1,4-dihydro-1,8-naphthyridine-3-carboxamide] | 91
15 | CC1(O)CCCN(c2ccc3c(=O)c(C(=O)NC45CC6CC(CC(C6)C4)C5)cn(-c4ccc(F)cc4F)c3n2)C1 (racemic) [Example 119, rac-1-(2,4-Difluorophenyl)-7-(3-hydroxy-3-methylpiperidin-1-yl)-4-oxo-N-(tricyclo[3.3.1.1^3,7]dec-1-yl)-1,4-dihydro-1,8-naphthyridine-3-carboxamide] | 90
16 | CCC(NC(=O)c1cn(-c2ccc(F)cc2F)c2nc(NCC(F)F)ccc2c1=O)C(F)(F)F (racemic) [Example 122, rac-7-[(2,2-Difluoroethyl)amino]-1-(2,4-difluorophenyl)-4-oxo-N-[1,1,1-trifluorobutan-2-yl]-1,4-dihydro-1,8-naphthyridine-3-carboxamide] | 94
17 | CC(C)CC(NC(=O)c1cn(-c2ccc(F)cc2F)c2nc(NCC(F)F)ccc2c1=O)C(F)(F)F (racemic) [Example 125, rac-7-[(2,2-Difluoroethyl)amino]-1-(2,4-difluorophenyl)-4-oxo-N-[1,1,1-trifluoro-4-methylpentan-2-yl]-1,4-dihydro-1,8-naphthyridine-3-carboxamide] | 116

These reach a lower EC50. Values come first.

Row | EC50 [nM] | Compound
18 | 44 | O=C(NC(c1ccc(F)cc1)C(F)(F)F)c1cn(-c2ccc(F)cc2F)c2nc(N3C[C@@H](O)CC3=O)ccc2c1=O (mixture of isomers) [Example 273, 1-(2,4-Difluorophenyl)-7-[(4S)-4-hydroxy-2-oxopyrrolidin-1-yl]-4-oxo-N-[2,2,2-trifluoro-1-(4-fluorophenyl)ethyl]-1,4-dihydro-1,8-naphthyridine-3-carboxamide]
19 | 49 | O=C(NC(c1cccc(Cl)c1)C(F)(F)F)c1cn(-c2ccc(F)cc2F)c2nc(N3C[C@@H](O)CC3=O)ccc2c1=O (mixture of isomers) [Example 274, N-[1-(3-Chlorophenyl)-2,2,2-trifluoroethyl]-1-(2,4-difluorophenyl)-7-[(4S)-4-hydroxy-2-oxopyrrolidin-1-yl]-4-oxo-1,4-dihydro-1,8-naphthyridine-3-carboxamide]
20 | 82 | O=C(NC12CC3CC(CC(C3)C1)C2)c1cn(-c2ccc(F)cc2F)c2nc(N3CCCC(O)C3)ccc2c1=O (racemic) [Example 14, rac-1-(2,4-Difluorophenyl)-7-(3-hydroxypiperidin-1-yl)-4-oxo-N-(tricyclo[3.3.1.1^3,7]dec-1-yl)-1,4-dihydro-1,8-naphthyridine-3-carboxamide]
21 | 58 | CCC(NC(=O)c1cn(-c2ccc(F)cc2F)c2nc(N3CCC(F)(F)C3)ccc2c1=O)C(F)(F)F (racemic) [Example 74, rac-1-(2,4-Difluorophenyl)-7-(3,3-difluoropyrrolidin-1-yl)-4-oxo-N-[1,1,1-trifluorobutan-2-yl]-1,4-dihydro-1,8-naphthyridine-3-carboxamide]
22 | 69 | CCCC(NC(=O)c1cn(-c2ccc(F)cc2F)c2nc(N3CCC(F)(F)C3)ccc2c1=O)C(F)(F)F (racemic) [Example 76, rac-1-(2,4-Difluorophenyl)-7-(3,3-difluoropyrrolidin-1-yl)-4-oxo-N-[1,1,1-trifluoropentan-2-yl]-1,4-dihydro-1,8-naphthyridine-3-carboxamide]
23 | 68 | Cc1cccc(C(NC(=O)c2cn(-c3ccc(F)cc3F)c3nc(N(C)C)ccc3c2=O)C(F)(F)F)c1 (racemic) [Example 138, rac-1-(2,4-Difluorophenyl)-7-(dimethylamino)-4-oxo-N-[2,2,2-trifluoro-1-(3-methylphenyl)ethyl]-1,4-dihydro-1,8-naphthyridine-3-carboxamide]
24 | 65 | CN(C)c1ccc2c(=O)c(C(=O)NC(c3ccc(F)cc3)C(F)(F)F)cn(-c3ccc(F)cc3F)c2n1 (racemic) [Example 139, rac-1-(2,4-Difluorophenyl)-7-(dimethylamino)-4-oxo-N-[2,2,2-trifluoro-1-(4-fluorophenyl)ethyl]-1,4-dihydro-1,8-naphthyridine-3-carboxamide]
25 | 68 | CN(C)c1ccc2c(=O)c(C(=O)NC(c3cccc(F)c3)C(F)(F)F)cn(-c3ccc(F)cc3F)c2n1 (racemic) [Example 140, rac-1-(2,4-Difluorophenyl)-7-(dimethylamino)-4-oxo-N-[2,2,2-trifluoro-1-(3-fluorophenyl)ethyl]-1,4-dihydro-1,8-naphthyridine-3-carboxamide]
